Experimental data from US9415053B2, “Solid, orally administrable pharmaceutical composition” (Bayer Intellectual Property GmbH, priority 2003, dated 2016).
Values after ≈ are worked out from the molar mass of the structure shown.

Test: Solubility of active compound (I)
Assay type: physicochemical
Method: The active compound (I) has a relatively poor water solubility (about 7 mg/l). As a result of this, difficulties with the oral bioavailability and an increased biological variability of the absorption rate can result.
An alternative process is the amorphization of the active compound. […] Amorphization of the active compound by means of the fusion method is also disadvantageous because of the high melting point of the active compound (about 230° C.), since an undesirably high proportion of breakdown components is formed during the preparation.

O=C(NC[C@H]1CN(c2ccc(N3CCOCC3=O)cc2)C(=O)O1)c1ccc(Cl)s1 [active compound (I), 5-chloro-N-({(5S)-2-oxo-3-[4-(3-oxo-4-morpholinyl)-phenyl]-1,3-oxazolidin-5-yl}-methyl)-2-thiophenecarboxamide]
solubility in pharmaceutically acceptable solvents (solvents such as ethanol or acetone): poorly soluble | solubility (water): ~7 µg/mL (≈ 16.1 µM)
